Source: US20230174649A1, “PHARMACEUTICAL COMPOSITIONS CONTAINING ANTI-CD47 ANTIBODIES” (I-MAB BIOPHARMA US LIMITED, priority 2020, published 2023)
Values joined by “and” are separate entries in the source; they are usually repeats but may differ in a detail not shown here. Equal values may be shown once.

What was measured:
Assay type in all cases: cell-based, Human
Calreticulin = assay: FACS analysis of expression level of calreticulin on tumor cell surface; conditions: Toledo cells; for Mean Fluorescence Intensity (MFI) Calreticulin: 12 hours
Experimental: (§1) For FACS analysis, on the day of analysis (day 1), Toledo cells were seeded into 96 well plate and cultured at a density of 0.2×10^6 cells/well. Then the cells were treated with the selected small molecule therapeutic agents for 12 hours.
(§2) On day 2, cells were harvested, washed twice and then re-suspended in 100 uL FACS buffer subject to FACS analysis. For detection of the expression of calreticulin and CD47, cells were incubated with anti-calreticulin antibody and commercially available anti-CD47 antibody (BD Biosciences, Catalog number: 561249) in dark at 4° C. for 30 mins.
(§3) Then, the cells were subject to FACS analysis. Data was acquired and analyzed.

Toledo Cells = assay: FACS-based phagocytosis assay, macrophages cocultured with Toledo cells
Experimental: FACS-based phagocytosis assays were performed to evaluate the phagocytic abilities of macrophages.
Toledo Cells (a tumor cell line, as a target) were labelled with CellTrace™ Far Red and plated into 96-well plate at a density of 0.15×10^6 cells/well for 12 hours. The Macrophages were prepared as discussed above and then labelled with CellTrace Violet. Next, the macrophages were added into the plate as an effector at an effector:target (Toledo) ratio of 1:3, giving a final density of macrophages at 0.05×10^6 cells/well. Macrophages and tumor cells were cocultured for 2-6 h at 37° C. in the presence of the indicated treatments (small molecule therapeutic agents, CD47 antibody, CD20 antibody or combinations). The incubation time depending on the phagocytosis rate, expecting phagocytosis of 5-20% cells.
Then, cells were acquired and data were analyzed.

macrophages = assay: Macrophage Viability Assay (CellTiter-Glo); conditions: for Macrophage viability (CellTiter-Glo Luminescent Cell Viability Assay): 16 hours, three replicate lines
Experimental: Then, the monocytes isolated by MACS were subsequently cultured in fresh complete medium supplemented with recombinant human granulocyte-macrophage colony-stimulating factor GM-CSF (50 ng/ml) and human recombinant IL-4 (35 ng/ml) to activate differentiated macrophages. After 6 days of culture (on day 7), cells were harvested, pooled together and counted for next use.
The cells from Example 2 were plated into a 96-well flat bottom plate at a density of 0.05×10^6 cells/well. After 2 hours of incubation, the macrophages were well attached to the plate. Then selected small molecule therapeutic agents were added to the well and cocultured for 16 hours. On day 8, macrophage viability was assessed by CellTiter-Glo® Luminescent Cell Viability Assay, according to the manufacture's instruction.

CD47 = assay: FACS analysis of expression level of CD47 on tumor cell surface; conditions: Toledo cells; for Mean Fluorescence Intensity (MFI) CD47: 12 hours
Experimental: as §1, §2, §3

In the case of CC1(C)CCC(CN2CCN(c3ccc(C(=O)NS(=O)(=O)c4ccc(NCC5CCOCC5)c([N+](=O)[O-])c4)c(Oc4cnc5[nH]ccc5c4)c3)CC2)=C(c2ccc(Cl)cc2)C1 [Venetoclax], the “Mean Fluorescence Intensity (MFI) Calreticulin” value (Calreticulin; 0.008 uM) is reported as 117, the “Mean Fluorescence Intensity (MFI) Calreticulin” value (Calreticulin; 0.04 uM) is reported as 258 and the “Mean Fluorescence Intensity (MFI) Calreticulin” value (Calreticulin; 0.2 uM) is reported as 471. For the same compound, the “Mean Fluorescence Intensity (MFI) Calreticulin” value (Calreticulin; 1 uM) was 1123, the “Mean Fluorescence Intensity (MFI) Calreticulin” value (Calreticulin; 5 uM) was 2533 and the “increase of the expression level of calreticulin” value (Calreticulin; dose of 5 μM) was ~120 folds. For the same compound, the “macrophage phagocytosis (untreated = 1.00)” value (from here on “macrophage phagocytosis”) (Toledo Cells; Cpd 0.0016 uM, T4J = 0, R = 0) was 1.00, the “macrophage phagocytosis” value (Toledo Cells; Cpd 0.0016 uM, T4J = 0, R = 0.01 ug/ml) was 1.45 and the “macrophage phagocytosis” value (Toledo Cells; Cpd 0.0016 uM, T4J = 0.1 ug/ml, R = 0) was 2.62. The “macrophage phagocytosis” value (Toledo Cells; Cpd 0.0016 uM, T4J = 0.1 ug/ml, R = 0.01 ug/ml) was 3.23, the “macrophage phagocytosis” value (Toledo Cells; Cpd 0.008 uM, T4J = 0, R = 0) was 1.10 and the “macrophage phagocytosis” value (Toledo Cells; Cpd 0.008 uM, T4J = 0, R = 0.01 ug/ml) was 1.54. For the same compound, the “macrophage phagocytosis” value (Toledo Cells; Cpd 0.008 uM, T4J = 0.1 ug/ml, R = 0) was 2.59, the “macrophage phagocytosis” value (Toledo Cells; Cpd 0.008 uM, T4J = 0.1 ug/ml, R = 0.01 ug/ml) was 3.30 and the “macrophage phagocytosis” value (Toledo Cells; Cpd 0.04 uM, T4J = 0, R = 0) was 1.17. For the same compound, the “macrophage phagocytosis” value (Toledo Cells; Cpd 0.04 uM, T4J = 0, R = 0.01 ug/ml) was 1.82, the “macrophage phagocytosis” value (Toledo Cells; Cpd 0.04 uM, T4J = 0.1 ug/ml, R = 0) was 2.64 and the “macrophage phagocytosis” value (Toledo Cells; Cpd 0.04 uM, T4J = 0.1 ug/ml, R = 0.01 ug/ml) was 3.37. The “macrophage phagocytosis” value (Toledo Cells; Cpd 0.2 uM, T4J = 0, R = 0) was 1.41, the “macrophage phagocytosis” value (Toledo Cells; Cpd 0.2 uM, T4J = 0, R = 0.01 ug/ml) was 1.93 and the “macrophage phagocytosis” value (Toledo Cells; Cpd 0.2 uM, T4J = 0.1 ug/ml, R = 0) was 2.81. The “macrophage phagocytosis” value (Toledo Cells; Cpd 0.2 uM, T4J = 0.1 ug/ml, R = 0.01 ug/ml) was 3.64, the “macrophage phagocytosis” value (Toledo Cells; Cpd 1 uM, T4J = 0, R = 0) was 1.56 and the “macrophage phagocytosis” value (Toledo Cells; Cpd 1 uM, T4J = 0, R = 0.01 ug/ml) was 2.03. The “macrophage phagocytosis” value (Toledo Cells; Cpd 1 uM, T4J = 0.1 ug/ml, R = 0) was 2.91, the “macrophage phagocytosis” value (Toledo Cells; Cpd 1 uM, T4J = 0.1 ug/ml, R = 0.01 ug/ml) was 3.65 and the “Macrophage viability (CellTiter-Glo Luminescent Cell Viability Assay)” value (from here on “Macrophage viability”) (macrophages; Cpd 0.002 uM) was 5968 and 6024 and 5856. The “Macrophage viability” value (macrophages; Cpd 0.008 uM) was 6148 and 6172 and 5912, the “Macrophage viability” value (macrophages; Cpd 0.04 uM) was 6288 and 6072 and 6264 and the “Macrophage viability” value (macrophages; Cpd 0.2 uM) was 7260 and 6072 and 5756. The “Macrophage viability” value (macrophages; Cpd 1 uM) was 6052 and 6020 and 6088, the “Macrophage viability” value (macrophages; Cpd 5 uM) was 5760 and 5660 and 6120 and the “Macrophage viability” value (macrophages; Cpd 25 uM) was 4696 and 4596 and 4776. The “Macrophage viability” value (macrophages; Cpd 50 uM) was 1240 and 1132 and 1108, the “toxicity to macrophages” value (macrophages; dose as high as 50 μM) was “showed toxicity” and the “toxicity to macrophages” value (macrophages; dose lower than 10 μM) was “little toxic”. The “Mean Fluorescence Intensity (MFI) CD47” value (CD47; 0.008 uM) was 7873, the “Mean Fluorescence Intensity (MFI) CD47” value (CD47; 0.04 uM) was 6201 and the “Mean Fluorescence Intensity (MFI) CD47” value (CD47; 0.2 uM) was 5206. For the same compound, the “Mean Fluorescence Intensity (MFI) CD47” value (CD47; 1 uM) was 4232, the “Mean Fluorescence Intensity (MFI) CD47” value (CD47; 5 uM) was 3540 and the “inhibition of CD47 expression” value (CD47; dose of 5 μM) was ~50%.
